For one test, the system named is teleosts. The experiment in a line: Electrically induced seizures in teleost fish, blocking by anticonvulsants. It counts as in vivo, teleost (Medaka). To be noted: compound in the water, "(10-80 μM)" printed after phenytoin. From the text:
Consistent electrical-induced seizures are achieved by optimizing both maximum voltage achieved, overall power delivered during relatively constant current. Electrodes are placed in the wells from above just prior to commencement of the test.
Convulsions are produced by the placing a circular array of 6 stainless steal wire electrodes (around 100 μm in outside diameter) around the perimeter of a single well in a 48 well plate. The electrodes are insulated to the tips on the side of the electrodes that face the inside of the well. In this way the fish is less likely to contact the metal of the electrode that faces the well wall. A seizure is evoked by the application of a constant duration pulse of a constant current sine wave oscillating voltage field. The amount of current applied depends on the electrical impedance of the arrangement. In general around 30 mA of current at around 70 RMS volts is sufficient to produce a reliable seizure in a 2-3 week old Medaka fish. During the pulse the output is randomly scrambled to opposing pairs of the six electrodes via a high voltage MUX circuit. The electronics to produce the above stimulation are apparent to person skilled at the art.
The application of sufficient electrical current to the water containing a fish will evoke a behavioral response. However, at a specific range of current/voltage settings (30-110 V; 20 mA-0.1 mA) an animal will have a seizure, experience a post-ictal period of quiescence and recover. […] Application of a battery of classic anticonvulsants known to block seizure generation in animals will block the expression of seizures in teleost.

The subject of the next test is zebrafish. The experiment in a line: Determining convulsive dose of convulsant added to well water (zebrafish). The class given is in vivo. How it is done: To establish the minimum seizure threshold dose (CD50) for convulsant agents 5 ml of tank water is placed a single well of a 12-well plate. […] When the animal has acclimated to the new conditions, a solution containing convulsant (e.g. a 20 mM solution of pentylenetetrazol (PTZ) in tank water) is added to the well at a rate of 0.1 ml per minute. The amount of solution being added is constant. The behavior of the fish is then monitored continuously during the rest period beginning with the addition of the convulsant. At the point which the animal has a convulsion the addition is stopped and the animal removed. […] This dose is considered the convulsive dose (>97%) for teleost.

In another test the test system is Medaka fish. In words: Chemically (PTZ) induced seizure activity in Medaka fish, anticonvulsant screen (FIG. 5). The class given is in vivo. Here is the method:
One embodiment of the screen for anticonvulsant activity in the presence of a chemical stimulus includess placing a single or plurality of adult (1 month) fish into each well of a 12 well plate. This well contains 4 ml of pure tank water with a defined pH (7.0 can be between 6-8), hardness (90 ppm). The test compounds are then applied to the wells in 12 concentrations ranging from 10 μM to 10 mM. The compounds are diluted from standard DMSO stock solutions stored in other multiwell plates. Test compounds are added as either tank water diluted solutions or as DMSO concentrates. […] The compounds are added to wells after the optical clarity (transmittance) of the well water is determined. Following addition of the compounds to the wells a second transmittance measure is made to determine if the compound has dropped out of solution at any of the concentrations. […] Highly insoluble compounds are solublized in cyclodextrins or mixed with wet fish food, dried and applied at a known amount to wells containing a fish that was not fed for a day.
Plates containing soluble compounds are covered with plastic tops from the manufacturer and placed in an incubator set around 27 degrees centigrade and an oxygen rich atmosphere. […] Fish are examined by the operator for deaths and they are scored as such.
Testing is performed in a visible light darkened, sound dampened room upon a highly diffused infrared light box. […] Excess or erratic activity is automatically determined by a computer algorhythim during a 20 minute control period. […]
The image sequence collected following the administration is examined by a computer program which determines a number of factors about the activity of the fish including orientation, location, distance traveled, and cross sectional area of the fish's silhouette. […] Activity levels reaching specific thresholds and the type of activity (circular swimming and erratic darting) are scored along with periods of quiescence. […] The latency to first seizure and the magnitude and frequency of seizures are scored for each well. […]

The test system of another test is Medaka. In words: Determining convulsive dose of convulsant added to well water (Medaka). The class given is in vivo. To be noted: 20 mM PTZ solution added at 0.1 ml per minute to 5 ml tank water. How it is done: To establish the minimum seizure threshold dose (CD50) for convulsant agents 5 ml of tank water is placed a single well of a 12-well plate. A single juvenile teleost is placed in the well and allowed to acclimate for a period of time in a darkened room. When the animal has acclimated to the new conditions, a solution containing convulsant (e.g. a 20 mM solution of pentylenetetrazol (PTZ) in tank water) is added to the well at a rate of 0.1 ml per minute. The amount of solution being added is constant. The behavior of the fish is then monitored continuously during the rest period beginning with the addition of the convulsant. At the point which the animal has a convulsion the addition is stopped and the animal removed. […] This dose is considered the convulsive dose (>97%) for teleost.

Turning to `NC(=O)OCC(COC(N)=O)c1ccccc1` [felbamate], the “blocking seizure specific behavioral movements following electrical stimulation” value in the test on teleosts is given as “capable of blocking seizure specific behavioral movements”.
Still for that read-out and setting: the value for `O=C1NC(=O)C(c2ccccc2)(c2ccccc2)N1` [phenytoin] was “capable of blocking seizure specific behavioral movements”.
For `C1CCc2nnnn2CC1` [PTZ, pentylenetetrazol], the “seizure evoked, share of fish” value in the test with zebrafish (adult zebrafish immersed in 5 mM PTZ, within 30 minutes of addition, 10 fish) turned out to be 100%. The “terminal concentration at which the animal has a convulsion (minimum seizure threshold dose, CD50)” value in the test with zebrafish (zebrafish, 20 mM PTZ solution added at 0.1 ml per minute to 5 ml tank water) is reported as “around 6 mM”; with Medaka, 10 mM. For the same compound, the “seizure in well with convulsant only” value in the test on Medaka fish (FIG. 5 lower left well, 6 mM PTZ) was “has seizure”.
Take `NC(=O)N1c2ccccc2C=Cc2ccccc21` [Carbamazepine]: in the test on teleosts, the “blocking seizure specific behavioral movements following electrical stimulation” value is listed as “capable of blocking seizure specific behavioral movements”.
Still for that read-out and setting: in the case of `NCC1(CC(=O)O)CCCCC1` [gabapentin] it was “capable of blocking seizure specific behavioral movements”.
As to `CCCC(CCC)C(=O)O` [Valproate, valproic acid], in the test on Medaka fish (FIG. 5 lower right well, 6 mM PTZ and Valproate 5 mM), the “seizure in well with convulsant and anticonvulsant” value is on record as “Only the fish in the lower left well has seizure”. In the test with Medaka fish (FIG. 5 upper right well, only valproate 5 mM, no convulsant), the “seizure in well with anticonvulsant only” value is reported as “Only the fish in the lower left well has seizure”.
